Source: patent EP0403398A1, “New thioformamide derivatives” (RHONE-POULENC SANTE, priority 1989, dated 1990)

Tested on: isolated rat aorta
Assay: Test A: activity against contractions induced by low K+ concentrations in the isolated rat aorta
Conditions: concentration reducing the 20mM K⁺-induced contraction by 90%; rat thoracic aorta strips denuded of endothelium, Krebs solution, cumulative concentrations; read-out: Activity Test A EC₉₀
Method: The test methods used were adapted from those described by Winslow et al [Eur.J.Pharmacol., 131, 219-228 (1986)] and Karaki [J.Pharmacol. Methods, 18, 1-21 (1987)] for differentiating vaso-relaxant activity. Test A : Activity against contractions induced by low K⁺ concentrations in the isolated rat aorta Thoracic aorta was removed from rats and transverse strips, denuded of endothelium, were suspended in a bath containing Krebs solution. The tension was recorded and a contraction induced by addition of 20mM K⁺ (potassium ion) to the bathing solution. The test compound was added to the bath as a solution in increasing cumulative concentration. The concentration in the bathing solution of the test compound which reduced the K⁺-induced contraction by 90% was determined and expressed in µM as the effective concentration (EC₉₀), given in Table I. Table I

SMILES	EC90
CNC(=S)[C@]1(c2cccnc2)CCCC[C@H]1N[C@H](C)c1cccc2ccccc12 [BE, (2R,1S)-2-[(R)-1-(1-naphthyl)ethylamino] 1-(3-pyridyl)cyclohexane-N-methylcarbothioamide]	3 nM
CNC(=S)[C@]1(c2cccnc2)CCCC[C@H]1NOC (racemic) [Compound AB, (±)-trans-2-methoxyamino-N-methyl-1-(3-pyridyl)cyclohexanecarbothioamide]	300 nM
CNC(=S)[C@]1(c2cccnc2)CCCC[C@H]1NOCc1ccccc1 (racemic) [AA, (±)-trans-2-benzyloxyamino-N-methyl-1-(3-pyridyl)cyclohexanecarbothioamide]	3 nM
CNC(=S)[C@]1(c2cccnc2)CCCC[C@H]1N[C@H](C)c1ccccc1 [BD, (2R,1S)-2-[(R)-1-phenylethylamino]-1-(3-pyridyl)cyclohexane-N-methylcarbothioamide]	0.03 nM
